Assay results as given in ChEMBL document CHEMBL1127255, “Synthesis of the benzofuran analogue of ILV, a new protein kinase C (PKC) activator” (Bioorg Med Chem Lett, 1994).

Target: Protein kinase C alpha type (Homo sapiens, UniProt P17252)
Experiment: Displacement of [3H]PDBu from PKC alpha expressed in Sf9 cells

CC(C)[C@H]1C(=O)N[C@H](CO)Cc2coc3cccc(c23)N1C
Ki: 17.3 nM

CC(C)[C@H]1C(=O)N[C@H](CO)Cc2c[nH]c3cccc(c23)N1C [INDOLACTUM]
Ki: 11 nM
